Measurements from patent EP3311800B1, “COMPOSITION COMPRISING MICROSTRUCTURES FOR THE CONTROLLED RELEASE OF OZONIZED OIL” (Project & Communications, Ltd., priority 2016, dated 2018).

Tested on: fibroblast L929
Test: cytotoxicity test (MTT test), UNI EN ISO 10993-5:2009
Assay type: cell-based
Conditions: Mus musculus
From the text: The four compositions indicated above were subjected to a cytotoxicity test (MTT test).
As is known, the cytotoxicity test (MTT test) is a reduction test used for determining the level of metabolic activity in the eukaryote cells. This is one of the most widely used cytotoxicity tests, thanks to its simplicity, accuracy and reproducibility. The chemical base of the test is the reduction of MTT, a tetrazole compound [3-(4,5-dimethylthiazol-2-yl)-2,5-diphenyltetrazolium bromide]. MTT is a yellow substance which, after reduction, forms a purple-colored formazan salt.
The process mainly takes place in the cytoplasm and secondarily in the mitochondria and at the level of the plasmatic membrane. The activity of the reductase that catalyze the reaction is highly dependent on the concentration of the intracellular NADH and NADPH, whose levels are associated with the availability of extracellular glucose. The mitochondrial succinate dehydrogenase and the cytochrome C also take part in the reduction of MTT. Consequently, any substance or treatment that interferes with these enzymes or with the glycolysis would influence the reduction of MTT and would therefore alter the results of the cell count. As a result of these metabolic reduction processes, dark purple crystals of formazan are formed within a few hours. These crystals can be solubilized in various organic solvents, mainly alcohols. An increase or a reduction in the number of cells causes an analogous variation in the quantity of formazan formed, thus giving an indication of the degree of cytotoxicity of the product tested.
The MTT test was carried out on cultures of fibroblast L929 treated with the extract (transfer liquid as such obtained after overnight incubation of the composition under examination in the culture medium) and subsequent dilutions 1:2. The same procedure was also applied for the negative reference (internal standard), whereas the positive control (SDS) was tested at concentrations ranging from 0.00313 to 0.4 mg/ml. Sodium dodecyl sulfate (SDS), a substance with known cytotoxic effects was used as positive control, whereas a non-cytotoxic internal standard was used as negative reference. The analysis was carried out according to the ISO standard for the biological evaluation of medical devices UNI EN ISO 10993-5:2009 (E) .
More specifically, an adequate number of cells was seeded in 96-well plates. Once a semi-confluent monolayer had been reached, the cells were treated with the various concentrations of the sample tested and standards and incubated for 24 hours under standard conditions. Non-treated cells kept in the culture medium represent the negative controls. After 24 hours of contact, the plates were examined under a phase contrast microscope, the medium was carefully removed from each well, the cells were then treated with MTT (1 mg/ml) and incubated for 3 hours under standard conditions. At the end of this period, the solution of MTT was eliminated and 100 µl of isopropanol were added to each well to dissolve the formazan crystals formed. The absorbance (optical density, OD) was determined by reading the spectrophotometer at a wavelength of 540 nm.
The inhibition of the cell vitality at each tested concentration was expressed as a percentage with respect to the negative control (non-treated cells) according to the following formula: Inhibition % = 100−[ODX /ODNC )×100] […]
The values thus calculated were charted against the same concentrations. […]

`CCCCCCCCCCCCOS(=O)(=O)[O-].[Na+]` [SDS, Sodium dodecyl sulfate] was tested, and the inhibition at 50 µg/mL (Concentration 0.05 mg/ml, 24 hours, read-out: Cell vitality inhibition (%)) was 66.5%, the inhibition at 100 µg/mL (Concentration 0.1 mg/ml, 24 hours, read-out: Cell vitality inhibition (%)) was 97.2% and the inhibition at 200 µg/mL (Concentration 0.2 mg/ml, 24 hours, read-out: Cell vitality inhibition (%)) was 97.5%. It also gave an inhibition at 400 µg/mL (Concentration 0.4 mg/ml, 24 hours, read-out: Cell vitality inhibition (%)) of 96.8% and an IC50 (concentration inhibiting cell vitality by 50%, extrapolated from concentration/response curve) of 46 µg/mL.
